Test results from patent US20240207286A1, “ASBT INHIBITORS IN THE TREATMENT OF RENAL DISEASES” (Albireo AB, priority 2022, published 2024).
Blank lines part the entries; values can stand above or below the molecule they belong to.

Columns and labels:
BDL mice [1] = experiment: Long-term effect on cholemic nephropathy in bile duct ligated mice, 6 weeks (Example 3); assay type: in vivo, mice (C57BL/6n)
Protocol: The long-term effect of Compound 1 on kidney injury in BDL mice was studied by histology, clinical chemistry and intravital imaging.
[…] […] On day 0, animals underwent bile duct ligation or sham surgery. Compound 1 was administered orally by gavage twice per day. Spontaneous urine samples were collected before BDL as well as on day 1 and weeks 1, 2, 3, 4, 5, and 6 after BDL by cannulation of the urinary bladder. Blood, urine, bile and tissue samples were collected at the end (week 6) of the experiment.

hIBAT = target: T1, hIBAT (Homo sapiens, UniProt Q12908); experiment: hIBAT potency (IC50); assay type: cell-based
T1 sequence (Q12908 1-348): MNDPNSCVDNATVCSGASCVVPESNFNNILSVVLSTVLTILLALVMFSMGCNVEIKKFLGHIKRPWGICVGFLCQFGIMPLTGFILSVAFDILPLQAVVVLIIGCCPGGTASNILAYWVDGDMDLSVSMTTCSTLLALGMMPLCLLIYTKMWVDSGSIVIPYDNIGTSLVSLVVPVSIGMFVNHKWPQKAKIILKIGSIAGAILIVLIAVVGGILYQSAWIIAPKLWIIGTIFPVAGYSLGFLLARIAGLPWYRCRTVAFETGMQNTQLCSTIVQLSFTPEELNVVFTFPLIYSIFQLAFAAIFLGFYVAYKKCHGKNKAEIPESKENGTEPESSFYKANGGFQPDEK
Protocol: (§1) ASBT inhibitor compounds 1 to 5 were used in the experiments described herein. Values were determined using the assays described in e.g. WO 2020/161217.

BDL mice [2] = experiment: Comparison of ASBT inhibitors in BDL mice, 19 days treatment (Example 5); assay type: in vivo, mice (C57BL/6n); conditions: male BDL mice; for serum bile acids / urine bile acids: p.o. once daily for 19 days, Compound 1 60 mg/kg, Compound 2 3 and 10 mg/kg; for urinary NGAL: p.o. once daily, after treatment for 18 days
Protocol: Male mice (C57BL/6n) were used. After completion of quarantine and acclimatization period, animals were randomized based on body weight into experimental groups (n=12 mice per bile duct ligation group along with 5 sham operated controls). On day 0, animals underwent bile duct ligation or sham surgery. The ASBT inhibitors were administered p.o. once daily. The animals were weighed every day. At day 21, blood samples were taken 2 and 6 hours after the final dose. At day 24, animals were sacrificed and samples (urine and blood; liver, kidney, heart and spleen tissues) were collected and analysed.

BDL mice [3] = experiment: Therapeutic time window in BDL mice, 28 days treatment (Example 4); assay type: in vivo, mice (C57BL/6n); conditions: 60 mg/kg p.o. twice daily for 28 days
Protocol: The effect of the time period before start of treatment with Compound 1 on kidney injury in BDL mice was evaluated.
Male mice (C57BL/6n) were used. After completion of quarantine and acclimatization period, animals were randomized based on body weight into experimental groups (n=7 mice per group). On day 0, animals underwent bile duct ligation or sham surgery. From day 3, 21, 42 or 63, animals were treated for 28 days with either vehicle or with Compound 1 at a dose of 60 mg/kg, as shown in Table 4 below. Compound 1 was administered p.o. twice per day. The animals were weighed every day. Blood, urine, bile and tissue samples were collected at the end of the experiment.

BDL mice [4] = experiment: Short-term effect of ASBT inhibition on urinary bile acid excretion in BDL mice (Example 2); assay type: in vivo, mice (C57BL/6n); conditions: female BDL mice; 15, 30, 60 or 120 mg/kg p.o. twice daily for 5 days (day 7-11); all treated groups
Protocol: The short-term effect of oral administration of Compound 1 to BDL mice on the urinary excretion of bile acids was evaluated.
Female mice (C57BL/6n) were used. After completion of quarantine and acclimatization period, animals were randomized based on body weight into experimental groups (n=4-7 mice in each). On day 0, animals underwent bile duct ligation. Compound 1 was administered orally by gavage twice per day. Spontaneous urine samples were collected before BDL and on days 7, 8, 9, 10, 11 and 12 after BDL by cannulation of the urinary bladder, and the concentration of bile acids in urine was determined.

Bioavailability in mice = conditions: C57BL/6, mouse, in vivo
Protocol: as §1

Caco-2 permeability = assay type: in vitro ADME; conditions: human; for Papp A→B: A2B; for Papp B→A: B2A
Text: Some ASBT inhibitors may show improved or optimal permeability. The permeability may be measured in Caco2 cells, and values are given as Papp (apparent permeability) values in cm/s. In some embodiments, the permeability is between about 0.01×10^−6 cm/s and about 50×10^−6 cm/s, such as between about 0.05×10^−6 cm/s and about 40×10^−6 cm/s, or such as between about 0.1×10^−6 cm/s and about 30×10^−6 cm/s. In some embodiments, the permeability is greater than at least about 0.1×10^−6 cm/s, such as greater than about 0.2×10^−6 cm/s, such as greater than about 0.4×10^−6 cm/s, such as greater than about 0.7×10^−6 cm/s, such as greater than about 1.0×10^−6 cm/s, such as greater than about 2×10^−6 cm/s, such as greater than about 3×10^−6 cm/s, such as greater than about 5×10^−6 cm/s, such as greater than about 7×10^−6 cm/s, such as greater than about 10×10^−6 cm/s, such as greater than about 15×10^−6 cm/s.
as §1

BDL mice [5] = experiment: Comparison of ASBT inhibitors in BDL mice, 5 days treatment (Example 6); assay type: in vivo, mice (C57BL/6n); conditions: male BDL mice; 10 mg/kg p.o. once daily for 5 days
Protocol: Male mice (C57BL/6n) were used. After completion of quarantine and acclimatization period, animals were randomized based on body weight into experimental groups (n=10 mice per bile duct ligation group). On day 1, animals underwent bile duct ligation. The ASBT inhibitors were administered p.o. once daily. The animals were weighed every day. At day 6, animals were moved to individual cages for cumulative overnight fecal collection (day 6 to 7). At day 8, blood samples were taken 2 and 6 hours after the final dose. Animals were then sacrificed and samples (urine and blood; liver, kidney and ileum tissues) were collected and analysed.

[6] = in vivo; cited from earlier work
[7] = female BDL mice, 60 mg/kg p.o. twice daily for 6 weeks
[8] = male BDL mice, dosing started on Day 3

SMILES: CCCCC1(CC)CN(c2ccccc2)c2cc(SC)c(O/C=C(\F)C(=O)O)cc2S(=O)(=O)C1 (stereo not shown) [Compound 1, (Z)-3-((3-butyl-3-ethyl-7-(methylthio)-1,1-dioxido-5-phenyl-2,3,4,5-tetrahydro-1,5-benzothiazepin-8-yl)oxy)-2-fluoroacrylic acid]
body weight loss due to BDL (BDL mice [1]; [7]): strongly ameliorated
severe fibrosis and cystic dilatation of renal tubules (histology) (BDL mice [1]; [7]): antagonized by Compound 1 almost to the levels of control animals without BDL
urinary BA (BDL mice [1]; [7]): massively increased
urinary KIM-1 (BDL mice [1]; [7]): strongly reduced
urinary NGAL (BDL mice [1]; [7]): strongly reduced
vascular leakage in kidneys (intravital imaging with Evans blue) (BDL mice [1]; [7]): completely reversed
mortality in the 6 week-period (BDL mice [1]; female BDL mice, 60 mg/kg p.o. twice daily, about 50% died in BDL-vehicle group): no mortality
therapeutic efficacy in similarly designed study with male mice (BDL mice [1]; male mice, 6 per group): confirmed the therapeutic efficacy
decrease of serum BA (BDL mice [1]; po, 60 mg/kg, 1008 h): about 90%
IC50 (hIBAT): 21 nM
serum bile acids (BDL mice [2]): lower serum bile acids
urine bile acids (BDL mice [2]): increase urine bile acids
urinary NGAL (BDL mice [2]): lowered urinary NGAL
body weight loss (BDL mice [3]; dosing started on Day 21): reversed body weight loss
renal injury (BDL mice [3]; dosing started on Day 21): almost completely reversed
body weight loss (BDL mice [3]; dosing started on Day 42): reversed body weight loss
renal injury (BDL mice [3]; dosing started on Day 42): partially reversed
effect on renal injury and body weight loss (BDL mice [3]; dosing started on Day 63): minimal effects
body weight loss (BDL mice [3]; [8]): reversed body weight loss
renal injury (BDL mice [3]; [8]): completely prevented
concentrations of bile acids in urine, fold higher after treatment (BDL mice [4]): at least 20 fold
bioavailability (Bioavailability in mice): 44%

SMILES: CCCCC1(CCCC)CN(c2ccccc2)c2cc(SC)c(OCCC(=O)O)cc2S(=O)(=O)N1 [Compound 2, 3-((3,3-dibutyl-7-(methylthio)-1,1-dioxido-5-phenyl-2,3,4,5-tetrahydro-1,2,5-benzothiadiazepin-8-yl)oxy)propanoic acid]
serum bile acids (BDL mice [2]): lower serum bile acids
urine bile acids (BDL mice [2]): increase urine bile acids
urinary NGAL (BDL mice [2]): lowered urinary NGAL
Papp A→B (Caco-2 permeability): 9.2 ×10⁻⁶ cm/s
Papp B→A (Caco-2 permeability): 0.9 ×10⁻⁶ cm/s

SMILES: CCCCC1(CCCC)CS(=O)(=O)c2ccc(N(C)C)cc2[C@@H](c2ccc(OCc3ccc(C[N+]45CCN(CC4)CC5)cc3)cc2)[C@H]1O.[Cl-] [maralixibat, 1-{[4-({4-[(4R,5R)-3,3-dibutyl-7-(dimethylamino)-4-hydroxy-1,1-dioxo-2,3,4,5-tetrahydro-1H-1λ^6-benzothiepin-5-yl]phenoxy}methyl)phenyl]methyl}-1,4-diazabicyclo[2.2.2]octan-1-ium chloride]
systemic absorption following oral administration [6]: less than 10%

Further lines, with some results ahead:

Papp A→B (Caco-2 permeability): 29.3 ×10⁻⁶ cm/s
Papp B→A (Caco-2 permeability): 25.3 ×10⁻⁶ cm/s
SMILES: CCCCC1(C)CN(c2ccccc2)c2cc(SC)c(CSCC(=O)O)cc2S(=O)(=O)C1 (stereo not shown) [Compound 3, 2-(((3-butyl-3-methyl-7-(methylthio)-1,1-dioxido-5-phenyl-2,3,4,5-tetrahydro-1,5-benzothiazepin-8-yl)methyl)thio)acetic acid]

IC50 (hIBAT): 2.4 nM
Papp A→B (Caco-2 permeability): 8.7 ×10⁻⁶ cm/s
Papp B→A (Caco-2 permeability): 12.9 ×10⁻⁶ cm/s
SMILES: CCCCC1(CC)CN(c2ccc(F)cc2)c2cc(SC)c(OCC(=O)O)cc2S(=O)(=O)C1 (stereo not shown) [Compound 5, 2-((3-butyl-3-ethyl-5-(4-fluorophenyl)-7-(methylthio)-1,1-dioxido-2,3,4,5-tetrahydro-1,5-benzothiazepin-8-yl)oxy)acetic acid]
urinary NGAL (BDL mice [5]): significantly reduced
